Measurements taken from publication PMC5344255, “Design, Synthesis and Biochemical Evaluation of Novel Selective Estrogen Receptor Ligand Conjugates Incorporating an Endoxifen-Combretastatin Hybrid Scaffold” (Biomedicines, 2016).
“And” between values parts separate entries of the source, which are not always exact repeats. Equal values may be shown once. Marks after values point to notes of the source that are not given here.

Experiments:
[1] = system: MCF-7 human breast cancer cells; experiment: MTT assay for antiproliferative effects in MCF-7; format: cell-based; conditions: Homo sapiens, MCF7, MCF-7, MTT assay
Method in brief: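 MCF-7 grown in MEM and MDA-MB-231 in D-MEM, each with 10% FBS, at 37 °C and 5% CO2. Viability by MTT reduction to formazan by metabolically active cells, plotted against compound concentration. Three experiments in triplicate, given as mean ± SEM.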

CCRF-CEM = experiment: NCI 60 cell line screen; format: cell-based, human; conditions: CCRF-CEM (Leukemia)
RPMI-8226 = experiment: NCI 60 cell line screen; format: cell-based, human; conditions: RPMI-8226 (Leukemia)
A549/ATCC = experiment: NCI 60 cell line screen; format: cell-based, human; conditions: A549/ATCC (Non-Small Cell Lung Cancer)
EKVX = experiment: NCI 60 cell line screen; format: cell-based, human; conditions: EKVX (Non-Small Cell Lung Cancer)
HOP-92 = experiment: NCI 60 cell line screen; format: cell-based, human; conditions: HOP-92 (Non-Small Cell Lung Cancer)
NCI-H23 = experiment: NCI 60 cell line screen; format: cell-based
NCI-H460 = experiment: NCI 60 cell line screen; format: cell-based, human; conditions: NCI-H460 (Non-Small Cell Lung Cancer)
NCI-H552 = experiment: NCI 60 cell line screen; format: cell-based, human; conditions: NCI-H552 (Non-Small Cell Lung Cancer)
HCT-15 = experiment: NCI 60 cell line screen; format: cell-based, human; conditions: HCT-15 (Colon Cancer)
SF-268 = experiment: NCI 60 cell line screen; format: cell-based, human; conditions: SF-268 (CNS Cancer)
SF295 = experiment: NCI 60 cell line screen; format: cell-based, human; conditions: SF295 (CNS Cancer)
SF539 = experiment: NCI 60 cell line screen; format: cell-based, human; conditions: SF539 (CNS Cancer)
SNB-19 = experiment: NCI 60 cell line screen; format: cell-based, human; conditions: SNB-19 (CNS Cancer)
SNB-75 = experiment: NCI 60 cell line screen; format: cell-based, human; conditions: SNB-75 (CNS Cancer)
U251 = experiment: NCI 60 cell line screen; format: cell-based, human; conditions: U251 (CNS Cancer)
LOX IMV1 = experiment: NCI 60 cell line screen; format: cell-based, human; conditions: LOX IMV1 (Melanoma); one-dose 10 µM
M14 = experiment: NCI 60 cell line screen; format: cell-based, human; conditions: M14 (Melanoma); one-dose 10 µM
SK-MEL-28 = experiment: NCI 60 cell line screen; format: cell-based, human; conditions: SK-MEL-28 (Melanoma); one-dose 10 µM
UACC-62 = experiment: NCI 60 cell line screen; format: cell-based, human; conditions: UACC-62 (Melanoma); one-dose 10 µM
IGROV1 = experiment: NCI 60 cell line screen; format: cell-based, human; conditions: IGROV1 (Ovarian Cancer); one-dose 10 µM
OVCAR-4 = experiment: NCI 60 cell line screen; format: cell-based, human; conditions: OVCAR-4 (Ovarian Cancer); one-dose 10 µM
786-0 = experiment: NCI 60 cell line screen; format: cell-based, human; conditions: 786-0 (Renal Cancer); one-dose 10 µM
A498 = experiment: NCI 60 cell line screen; format: cell-based
UO-31 = experiment: NCI 60 cell line screen; format: cell-based, human; conditions: UO-31 (Renal Cancer); one-dose 10 µM
MCF-7 = experiment: NCI 60 cell line screen; format: cell-based; conditions: Homo sapiens
MDA-MB-231/ATCC = experiment: NCI 60 cell line screen; format: cell-based, human; conditions: MDA-MB-231/ATCC (Breast Cancer); one-dose 10 µM
BT-549 = experiment: NCI 60 cell line screen; format: cell-based, human; conditions: BT-549 (Breast Cancer); one-dose 10 µM

Structure (SMILES): CCC(=C(c1ccc(O)cc1)c1ccc(OCCN(C)C(=O)/C(=C/c2ccc(OC)c(O)c2)c2cc(OC)c(OC)c(OC)c2)cc1)c1ccc(O)cc1 (mixture of isomers) [Compound 28, (E)-N-(2-{4-[(E/Z)-1,2-Bis-(4-hydroxyphenyl)but-1-enyl]-phenoxy}ethyl)-3-(3-hydroxy-4-methoxyphenyl)-N-methyl-2-(3,4,5-trimethoxyphenyl)acrylamide]
- IC50 ([1]; mean of at least three experiments in triplicate): 5 nM
- IC50 ([1]; values in nM): 0.005 nM
- GI% (10^−5 M) (CCRF-CEM; one-dose 10 µM): 72.48%
- GI50 (CCRF-CEM; Homo sapiens, five-dose screen): 1770 nM
- GI50 (RPMI-8226; Homo sapiens, five-dose screen): 896 nM
- GI% (10^−5 M) (RPMI-8226; one-dose 10 µM): 91% and 90.65%
- GI% (10^−5 M) (A549/ATCC; one-dose 10 µM): 86.97%
- GI50 (A549/ATCC; Homo sapiens, five-dose screen): 2880 nM
- GI% (10^−5 M) (EKVX; one-dose 10 µM): 85.11%
- GI50 (EKVX; Homo sapiens, five-dose screen): 2010 nM
- GI% (10^−5 M) (HOP-92; one-dose 10 µM): 86.19%
- GI50 (HOP-92; Homo sapiens, five-dose screen): 764 nM
- GI50 (NCI-H23; Homo sapiens, NCI-H23): 2190 nM
- LC50 (NCI-H23; Homo sapiens, NCI-H23, five-dose screen): 48900 nM
- GI% (10^−5 M) (NCI-H23; NCI-H23 (Non-Small Cell Lung Cancer), one-dose 10 µM): 97% and 96.76%
- GI50 (NCI-H460; Homo sapiens, five-dose screen): 1420 nM
- GI% (10^−5 M) (NCI-H460; one-dose 10 µM): 98% and 98.38%
- GI50 (NCI-H552; Homo sapiens, 60 cell, five-dose screen): 1390 nM
- GI% (10^−5 M) (NCI-H552; one-dose 10 µM): 100 ^d,h %
- GI% (10^−5 M) (HCT-15; one-dose 10 µM): 100 ^d,k %
- GI50 (HCT-15; Homo sapiens, five-dose screen): 1530 nM
- GI50 (SF-268; Homo sapiens, five-dose screen): 1690 nM
- GI% (10^−5 M) (SF-268; one-dose 10 µM): 84.22%
- GI50 (SF295; Homo sapiens, SF-295, five-dose screen): 1740 nM
- GI% (10^−5 M) (SF295; one-dose 10 µM): 73.4%
- GI50 (SF539; Homo sapiens, SF-539, five-dose screen): 1180 nM
- GI% (10^−5 M) (SF539; one-dose 10 µM): 100 ^d,n %
- GI50 (SNB-19; Homo sapiens, five-dose screen): 1720 nM
- GI% (10^−5 M) (SNB-19; one-dose 10 µM): 81.49%
- GI50 (SNB-75; Homo sapiens, five-dose screen): 5960 nM
- GI% (10^−5 M) (SNB-75; one-dose 10 µM): 60.65%
- GI50 (U251; Homo sapiens, U-251, five-dose screen): 1740 nM
- GI% (10^−5 M) (U251; one-dose 10 µM): 93% and 93.37%
- GI% (10^−5 M) (LOX IMV1): 1.55%
- GI% (10^−5 M) (M14): 1.68%
- GI% (10^−5 M) (SK-MEL-28): 1.65%
- GI% (10^−5 M) (UACC-62): 0.922%
- GI% (10^−5 M) (IGROV1): 2.3%
- GI% (10^−5 M) (OVCAR-4): 2.59%
- GI% (10^−5 M) (786-0): 1.91%
- GI% (10^−5 M) (A498; A498 (Renal Cancer), one-dose 10 µM): 2.94%
- CC50 (A498; Homo sapiens, A498, five-dose screen, read-out: LC50 (the source's name)): 32600 nM
- GI% (10^−5 M) (UO-31): 2.66%
- IC50 (MCF-7; MCF7, read-out: GI50 (IC50)): 9.5 nM
- CC50 (MCF-7; MCF7, MCF-7, five-dose screen, read-out: LC50 (the source's name)): > 50000 nM
- GI% (10^−5 M) (MDA-MB-231/ATCC): 1.61%
- GI% (10^−5 M) (BT-549): 1.12%
